Results on 1 molecule are retold here after patent publication US12527782B2, “Use of hexokinase 2/mitochondria-detaching compounds for treating hexokinase-2 (HK2)-expressing cancers” (Vidac Pharma Ltd., priority 2016, dated 2026).

In assay [1] the test system is Lymphoma (Non-Hodgkin) LYXFNH HUT-78. Kind of assay: CFA, LYXFNH HUT-78. The format is cell-based, human. The note with it: Cell line/CFA. On the procedure:
(§1) CFA was performed by Charles River Laboratories (Freiburg, Germany) in 96-well plate format according to a modified two-layer soft agar assay. The origin of the tumor xenografts has been described (Fiebig et al. 1989, incorporated herein by reference). The list of tumors used in this study is detailed in Table 1.
The cell lines tested were from a large collection of patient-derived (PDX) and cell line-derived (CDX) human tumor xenografts growing subcutaneously in immunodeficient nude mice (Oncotest GmbH, a Charles River Division). The majority of the xenografts have been directly transplanted from patients and passaged in nude mice. The xenografts retain most of the characteristics of the parental patient tumors including histology and sensitivity to anti-cancer drugs, and efficacy tests in tumor-bearing nude mice largely replicate the response of the donor patient to standard anti-cancer drugs. The cell lines were from publicly available cell lines, including cell lines derived from solid tumors and hematological malignancies. […]
The clonogenic assay was carried out in a 96 well plate format using ultra low attachment plates. […] Cultures were incubated at 37° C. and 7.5% CO2 in a humidified atmosphere for 8 to 14 days and monitored closely for colony growth using an inverted microscope. […]

For the next assay, the system named is Lung (SCLC) LXFS 2156. The experiment in a line: CFA, LXFS 2156. Type of assay: cell-based, human. The conditions noted are these: PDX/CFA. On the procedure:
as §1

Assay [2] has as its system Lung (NSCLC, adeno) LXFA 1012. Kind of assay: CFA, LXFA 1012. Type of assay: cell-based, human. The conditions noted are these: PDX/CFA. The method, then: as §1
Assay [3] relates to Leukemia (BCLL) LEXFCM MEG-01. The experiment in a line: CFA, LEXFCM MEG-01. The format is cell-based, human. The note with it: Cell line/CFA. On the procedure:
as §1

In the next assay the test system is Liver (HCC) LIXFH Hep G2. The experiment in a line: CFA, LIXFH Hep G2. The format is cell-based, human. The note with it: Cell line/CFA. On the procedure: as §1
In another assay the target is T1, VDAC1/HK2 complex (Homo sapiens, UniProt P52789).
T1 construct: host or cells: E. coli (HK2); sheep liver mitochondria (VDAC1)
Kind of assay: Microscale Thermophoresis (MST) dissociation of VDAC1/HK2 complex. Type of assay: binding. The note with it: cell-free MST; HK2 pre-incubated with 1.5 μM VDAC1. On the procedure: A431 (human skin SCC), HT-297.T (human AK), and HaCaT transformed normal keratinocyte cell lines were from ATCC (Manassas, VA) and were maintained in DMEM supplemented with 10% FCS, 4 mM L-Gln, 1 mM sodium pyruvate, 100 U/mL penicillin, 1 μg/mL streptomycin. Human HK1 and HK2 plasmids were purchased from Addgene (Cambridge, MA) and were purified from E. Coli. VDAC1 was purified from sheep liver mitochondria as described (Arbel et al. 2012, incorporated herein by reference). Human skin tissue microarray (SK208 and SK 805) were purchased from US Biomax Inc. (Rockville, MD).
Studies were conducted on Nanotemper Monolith NT.115 (Munich, Germany). HK1 and HK2 were labeled using Monolith™ NT.115 Protein Labeling Kit BLUE-NHS. As a preliminary study to form the VDAC1-HK complexes, various concentrations of VDAC1 were added to 67 nM HK1 or 71 nM HK2. The preferred VDAC1 concentration was determined to be 1.5 μM. For dissociation studies, HKs were pre-incubated with VDAC1 for 10 minutes and various concentrations of Formula C were added for an additional 10 minutes. MST default parameters were used and analysis was with Nanotemper analysis software. […]
The activity of Formula C in a cell-free assay was evaluated using Microscale Thermophoresis (MST) analysis, which is based on altered movement of a protein in a temperature gradient when bound to other molecules. […]
(MST reads how a fluorescent partner responds to local heating, with and without ligand.)

The test system of a further assay is Skin SCC SXFS 627. Kind of assay: CFA, SXFS 627. The conditions noted are these: PDX/CFA. The format is cell-based, human. The method, then: as §1
Assay [4] relates to Leukemia (AML) LEXFAM HL-60. The experiment in a line: CFA, LEXFAM HL-60. The note with it: Cell line/CFA. Type of assay: cell-based, human. On the procedure: as §1
In assay [5] the test system is Leukemia (BCLL) LEXFCL MEC-1. Kind of assay: CFA, LEXFCL MEC-1. The format is cell-based, human. The note with it: Cell line/CFA. The method, then:
as §1

The subject of a further assay is Kidney RXF 423. The experiment in a line: CFA, RXF 423. The format is cell-based, human. The conditions noted are these: PDX/CFA. The method, then: as §1
A further assay deals with Skin SCC VXF A-431. The experiment in a line: CFA, VXF A-431. The format is cell-based, human. The conditions noted are these: Cell line/CFA. On the procedure:
as §1

The test system of another assay is Breast MAXF MDA-MB-231. Kind of assay: CFA, MAXF MDA-MB-231. Type of assay: cell-based, human. The note with it: Cell line/CFA. On the procedure:
as §1

T1 sequence (P52789 whole entry, one chain of several): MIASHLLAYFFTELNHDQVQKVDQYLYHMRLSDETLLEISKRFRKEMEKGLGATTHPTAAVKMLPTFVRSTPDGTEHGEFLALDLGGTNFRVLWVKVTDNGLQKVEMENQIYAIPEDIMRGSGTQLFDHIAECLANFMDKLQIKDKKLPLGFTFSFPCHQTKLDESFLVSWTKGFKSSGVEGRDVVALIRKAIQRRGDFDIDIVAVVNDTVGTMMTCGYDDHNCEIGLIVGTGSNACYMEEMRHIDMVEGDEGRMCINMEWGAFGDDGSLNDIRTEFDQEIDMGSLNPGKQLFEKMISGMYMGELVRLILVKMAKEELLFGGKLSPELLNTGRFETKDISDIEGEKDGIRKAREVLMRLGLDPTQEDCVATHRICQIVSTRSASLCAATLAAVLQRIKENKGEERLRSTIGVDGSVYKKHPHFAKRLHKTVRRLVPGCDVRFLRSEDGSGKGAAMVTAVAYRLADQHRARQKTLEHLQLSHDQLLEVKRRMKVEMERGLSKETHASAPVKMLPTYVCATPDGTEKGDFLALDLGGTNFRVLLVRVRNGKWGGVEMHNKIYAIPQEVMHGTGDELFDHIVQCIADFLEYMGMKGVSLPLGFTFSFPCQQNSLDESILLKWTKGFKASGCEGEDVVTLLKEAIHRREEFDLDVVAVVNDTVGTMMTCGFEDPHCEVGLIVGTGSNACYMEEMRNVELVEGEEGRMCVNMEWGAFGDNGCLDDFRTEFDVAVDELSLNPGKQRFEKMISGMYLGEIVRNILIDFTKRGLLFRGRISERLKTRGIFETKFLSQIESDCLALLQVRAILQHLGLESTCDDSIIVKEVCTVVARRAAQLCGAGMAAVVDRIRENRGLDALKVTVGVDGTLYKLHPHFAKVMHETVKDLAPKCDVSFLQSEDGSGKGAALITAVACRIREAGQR

Turning to `CC/C=C\CC1C(=O)CCC1CC(=O)Oc1cccc2cccnc12` (stereo not drawn) [Formula C], the IC50 (in general, the midpoint of a concentration-inhibition curve) in assay [1] was found to be 965 nM; in the assay with Lung (SCLC) LXFS 2156 it was 3.56 µM; in assay [2] it was 1360 nM; in assay [3], 2760 nM; in the assay with Liver (HCC) LIXFH Hep G2, 5.2 µM; at VDAC1/HK2 complex, 92 nM. Also, the IC50 in the assay with Skin SCC SXFS 627 amounted to 1560 nM; in assay [4] it was 1540 nM; in assay [5], 1160 nM; in the assay with Kidney RXF 423, 1700 nM; in the assay with Skin SCC VXF A-431, 364 nM; in the assay on Breast MAXF MDA-MB-231 it was 1700 nM.
